Drawing on patent US8440710B2, “HSL inhibitors useful in the treatment of diabetes” (Hoffmann-La Roche Inc., priority 2009, dated 2013), this text covers IC50 for 13 compounds.

Molecules are shown by their SMILES.

The target in this test is T1, human HSL (Homo sapiens, UniProt Q05469).
T1 construct: generate a full length human HSL ORF with a 3′-His6 tag; made in house; host or cells: High 5 insect cells (baculovirus, pFast-BAC)
T1 sequence (Q05469 1-1076): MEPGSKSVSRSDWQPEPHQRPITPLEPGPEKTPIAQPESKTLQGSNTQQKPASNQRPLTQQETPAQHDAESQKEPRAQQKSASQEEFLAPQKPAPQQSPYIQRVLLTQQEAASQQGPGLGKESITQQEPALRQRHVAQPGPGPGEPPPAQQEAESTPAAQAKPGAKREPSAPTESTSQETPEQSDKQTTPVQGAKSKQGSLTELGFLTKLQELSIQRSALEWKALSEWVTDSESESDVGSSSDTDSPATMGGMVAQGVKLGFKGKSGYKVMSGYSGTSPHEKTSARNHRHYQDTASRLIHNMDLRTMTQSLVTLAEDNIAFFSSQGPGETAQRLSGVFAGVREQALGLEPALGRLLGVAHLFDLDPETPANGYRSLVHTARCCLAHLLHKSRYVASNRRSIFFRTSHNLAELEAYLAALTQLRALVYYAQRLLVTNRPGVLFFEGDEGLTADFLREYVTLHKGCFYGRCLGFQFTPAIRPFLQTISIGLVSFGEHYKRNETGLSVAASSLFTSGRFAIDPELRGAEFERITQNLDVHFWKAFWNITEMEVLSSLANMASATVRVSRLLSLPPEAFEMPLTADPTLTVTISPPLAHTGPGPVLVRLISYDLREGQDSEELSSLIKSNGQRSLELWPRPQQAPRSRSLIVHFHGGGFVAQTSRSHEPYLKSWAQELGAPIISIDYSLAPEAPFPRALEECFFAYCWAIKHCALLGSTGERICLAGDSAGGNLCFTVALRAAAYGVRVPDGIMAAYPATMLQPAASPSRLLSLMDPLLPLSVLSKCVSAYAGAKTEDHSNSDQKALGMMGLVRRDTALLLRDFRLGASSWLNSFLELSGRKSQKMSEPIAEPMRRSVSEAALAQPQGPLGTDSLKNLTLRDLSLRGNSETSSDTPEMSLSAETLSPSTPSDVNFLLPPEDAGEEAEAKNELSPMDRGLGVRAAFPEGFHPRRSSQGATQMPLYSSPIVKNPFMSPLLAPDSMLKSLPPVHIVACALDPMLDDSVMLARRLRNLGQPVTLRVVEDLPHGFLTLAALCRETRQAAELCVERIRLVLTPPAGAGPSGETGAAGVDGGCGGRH
Put plainly: Human Hormone-Sensitive Lipase (HSL) enzyme inhibition assay (colorimetric, DMPT substrate). Type of test: biochemical. Particulars: human full length HSL-His6, 2,3-dimercapto-1-propanol tributyrate substrate, 37° C. 20 minutes, absorbance at 405 nm; read-out: HSL hum IC50. In a few lines: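 Full-length human HSL with C-terminal His6, expressed in baculovirus-infected High 5 cells and Ni-NTA purified, was added (15 ug/ml stock) to 1.5 mM DMPT in 100 mM MOPS pH 7.2, 0.2 mg/ml fatty acid-free BSA containing compound. After 20 min at 37 °C, DTNB with SDS/Triton X-100 was added; A405 read after 15 min at RT.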
As to `O=c1ccccn1C[C@]1(O)CC[C@@]2(CCN(c3ccc(OCC(F)(F)F)cc3)C2=O)CC1` [Example 370, (5α,8β)-8-Hydroxy-8-(2-oxo-2H-pyridin-1-ylmethyl)-2-[4-(2,2,2-trifluoro-ethoxy)-phenyl]-2-aza-spiro[4.5]decan-1-one], the IC50 (usually the midpoint of a concentration-inhibition curve) came to 80 nM.
Turning to `CC[C@]1(O)CC[C@]2(CCN(c3ccc(C(C)(C)COC)cc3)C2=O)CC1` [Example 131, (5α,8α)-8-Ethyl-8-hydroxy-2-[4-(2-methoxy-1,1-dimethyl-ethyl)-phenyl]-2-aza-spiro[4.5]decan-1-one], the IC50 was determined as 90 nM.
For `COC[C@]1(O)CC[C@]2(CCN(c3ccc(O[C@H](C)C(F)(F)F)nc3)C2=O)CC1` [Example 152, (5α,8α)-8-Hydroxy-8-methoxymethyl-2-[6-((R)-2,2,2-trifluoro-1-methyl-ethoxy)-pyridin-3-yl]-2-aza-spiro[4.5]decan-1-one], the half-inhibitory concentration (IC50) is 50 nM.
As for `COc1ccc(N2CC[C@]3(CC[C@H](Oc4ccccc4)CC3)C2=O)cc1` [Example 46, (5α,8α)-2-(4-Methoxy-phenyl)-8-phenoxy-2-aza-spiro[4.5]decan-1-one], the 50% inhibitory concentration (IC50) is 4240 nM.
For the compound `CCCOC[C@]1(O)CC[C@]2(CCN(c3ccc(C4CC4)cc3)C2=O)CC1` [Example 272, (5α,8α)-2-(4-Cyclopropyl-phenyl)-8-hydroxy-8-propoxymethyl-2-aza-spiro[4.5]decan-1-one], the IC50 is 20 nM.
`O=C1N(c2ccc(OCC(F)(F)F)cc2)CC[C@]12CC[C@@](O)(COCC1CC1)CC2` [Example 257, (5α,8α)-8-[(Cyclopropylmethoxy)methyl]-8-hydroxy-2-[4-(2,2,2-trifluoro-ethoxy)-phenyl]-2-aza-spiro[4.5]decan-1-one]: the IC50 worked out at 10 nM.
Turning to `C[C@H](Oc1ccc(N2CC[C@]3(CC[C@@](O)(CS(=O)(=O)C(C)(C)C)CC3)C2=O)cn1)C(F)(F)F` [Example 325, (5α,8α)-8-Hydroxy-8-(2-methyl-propane-2-sulfonylmethyl)-2-[6-((S)-2,2,2-trifluoro-1-methyl-ethoxy)pyridin-3-yl]-2-aza-spiro[4.5]decan-1-one], the concentration for half-maximal inhibition (IC50) is 10 nM.
As for `CCc1ccc(N2CC[C@]3(CC[C@](O)(COc4ccccc4)CC3)C2=O)cc1` [Example 227, (5α,8β)-2-(4-Ethyl-phenyl)-8-hydroxy-8-phenoxymethyl-2-aza-spiro[4.5]decan-1-one], the figure is 700 nM; as for `CO[C@H](c1ccc(N2CC[C@]3(CC[C@@](O)(C(C)C)CC3)C2=O)cc1)C(F)(F)F` [Example 137, (5α,8α)-8-Hydroxy-8-isopropyl-2-(4-((R)-2,2,2-trifluoro-1-methoxyethyl)phenyl)-2-aza-spiro[4.5]decan-1-one], 10 nM.
Consider `CCCS(=O)(=O)C[C@]1(O)CC[C@]2(CCN(c3ccc(C(C)(C)C)cc3)C2=O)CC1` [Example 331, (5α,8α)-2-(4-tert-Butyl-phenyl)-8-hydroxy-8-(propane-1-sulfonylmethyl)-2-aza-spiro[4.5]decan-1-one], for which the half-inhibitory concentration (IC50) worked out at 12 nM.
`C=CCC[C@]1(O)CC[C@]2(CCN(c3ccc(OC(F)(F)F)cc3)C2=O)CC1` [Example 64, (5α,8α)-8-But-3-enyl-8-hydroxy-2-(4-trifluoromethoxy-phenyl)-2-aza-spiro[4.5]decan-1-one]: the half-inhibitory concentration (IC50) came out at 30 nM.
In the case of `CC(C)(C)c1ccc(N2CCC3(CCC(O)(COc4ccccn4)CC3)C2=O)cc1` (stereo not drawn) [Example 352, (5α,8α)-2-(4-tert-Butyl-phenyl)-8-hydroxy-8-(pyridin-2-yloxymethyl)-2-aza-spiro[4.5]decan-1-one], the IC50 is 30 nM.
Take `C=C(C)[C@]1(O)CC[C@@]2(CCN(c3ccc(OCC(F)(F)F)cc3)C2=O)CC1` [Example 106, (5α,8β)-8-Hydroxy-8-(prop-1-en-2-yl)-2-(4-(2,2,2-trifluoroethoxy)phenyl)-2-aza-spiro[4.5]decan-1-one]: the 50% inhibitory concentration (IC50) turned out to be 1350 nM.
